Results: ChEMBL document CHEMBL3991601, “The target landscape of clinical kinase drugs” (Science, 2017)
Calls of active or inactive are those of the source. Cut-off read from the data, not from the text of the source, for most assays here: actives have a measured Kd and inactives only a lower limit.

Target: Dual specificity tyrosine-phosphorylation-regulated kinase 1A (Homo sapiens, UniProt Q13627)
Conditions: not given
Note: in the data inactive means no Kd found up to 30 µM.

| Structure (SMILES) | Kd |
| --- | --- |
| C1=C/COCc2cc(ccc2OCCN2CCCC2)Nc2nccc(n2)-c2cccc(c2)COC/1 [PACRITINIB] | > 30 µM (inactive) |
| Cc1ccc(-n2nc(C(C)(C)C)cc2NC(=O)NCc2cc(F)ccc2Oc2ccc3c(cnn3CCO)c2)cc1 [PEXMETINIB] | > 30 µM (inactive) |
| C=CC(=O)N1CCC(Oc2cc3c(Nc4ccc(Cl)c(Cl)c4F)ncnc3cc2OC)CC1 [POZIOTINIB] | > 30 µM (inactive) |

Target: Platelet-derived growth factor receptor beta (Homo sapiens, UniProt P09619)
Sequence (P09619 whole entry): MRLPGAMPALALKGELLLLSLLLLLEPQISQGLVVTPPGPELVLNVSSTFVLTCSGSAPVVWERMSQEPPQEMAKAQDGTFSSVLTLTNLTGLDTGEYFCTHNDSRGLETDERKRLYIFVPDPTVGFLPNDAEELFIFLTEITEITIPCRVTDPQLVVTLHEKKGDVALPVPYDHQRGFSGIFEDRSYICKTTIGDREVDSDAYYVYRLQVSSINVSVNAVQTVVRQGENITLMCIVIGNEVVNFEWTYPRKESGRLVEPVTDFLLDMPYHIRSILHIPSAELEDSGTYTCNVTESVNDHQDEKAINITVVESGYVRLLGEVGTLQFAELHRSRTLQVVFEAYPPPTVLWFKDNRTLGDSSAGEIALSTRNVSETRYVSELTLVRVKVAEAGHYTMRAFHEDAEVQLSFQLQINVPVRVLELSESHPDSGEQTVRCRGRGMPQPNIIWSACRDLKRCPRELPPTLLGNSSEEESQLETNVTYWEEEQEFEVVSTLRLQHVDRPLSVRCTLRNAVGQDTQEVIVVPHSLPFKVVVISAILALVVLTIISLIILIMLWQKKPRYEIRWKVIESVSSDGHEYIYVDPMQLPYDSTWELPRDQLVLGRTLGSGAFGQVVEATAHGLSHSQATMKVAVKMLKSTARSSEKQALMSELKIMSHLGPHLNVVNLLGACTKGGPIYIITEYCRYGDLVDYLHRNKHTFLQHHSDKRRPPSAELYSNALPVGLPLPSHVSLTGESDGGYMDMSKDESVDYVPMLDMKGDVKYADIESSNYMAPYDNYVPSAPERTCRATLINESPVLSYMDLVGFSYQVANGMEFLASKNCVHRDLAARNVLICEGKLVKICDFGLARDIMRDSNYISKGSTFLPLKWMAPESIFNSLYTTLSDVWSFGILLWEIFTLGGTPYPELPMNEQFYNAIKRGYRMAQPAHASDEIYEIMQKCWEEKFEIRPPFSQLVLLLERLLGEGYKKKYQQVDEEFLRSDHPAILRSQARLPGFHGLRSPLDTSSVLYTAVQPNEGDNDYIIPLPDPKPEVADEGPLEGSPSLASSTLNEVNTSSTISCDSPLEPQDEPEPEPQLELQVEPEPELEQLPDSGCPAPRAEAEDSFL
Conditions: not given

| Structure (SMILES) | Kd |
| --- | --- |
| C1=C/COCc2cc(ccc2OCCN2CCCC2)Nc2nccc(n2)-c2cccc(c2)COC/1 [PACRITINIB] | 2.67 µM (active) |
| Cc1ccc(-n2nc(C(C)(C)C)cc2NC(=O)NCc2cc(F)ccc2Oc2ccc3c(cnn3CCO)c2)cc1 [PEXMETINIB] | > 30 µM (inactive) |
| C=CC(=O)N1CCC(Oc2cc3c(Nc4ccc(Cl)c(Cl)c4F)ncnc3cc2OC)CC1 [POZIOTINIB] | > 30 µM (inactive) |

Target: Ribosomal protein S6 kinase beta-1 (Homo sapiens, UniProt P23443)
Sequence (P23443 whole entry): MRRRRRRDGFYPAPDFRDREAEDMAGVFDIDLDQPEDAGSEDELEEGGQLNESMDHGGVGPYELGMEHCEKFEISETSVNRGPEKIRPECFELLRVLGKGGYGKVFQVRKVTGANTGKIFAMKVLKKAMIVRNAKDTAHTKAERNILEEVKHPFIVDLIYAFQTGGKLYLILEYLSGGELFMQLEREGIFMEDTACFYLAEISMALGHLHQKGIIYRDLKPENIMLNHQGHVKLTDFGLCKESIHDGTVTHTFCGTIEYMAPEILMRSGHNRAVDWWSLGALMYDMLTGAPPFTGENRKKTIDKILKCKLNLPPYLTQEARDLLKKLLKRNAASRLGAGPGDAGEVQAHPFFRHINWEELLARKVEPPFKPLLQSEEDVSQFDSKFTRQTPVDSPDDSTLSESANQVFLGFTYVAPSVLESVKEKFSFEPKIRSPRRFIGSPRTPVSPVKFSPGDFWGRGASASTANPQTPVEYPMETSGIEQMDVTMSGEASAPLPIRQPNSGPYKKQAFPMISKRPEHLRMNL
Conditions: not given

| Structure (SMILES) | Kd |
| --- | --- |
| C1=C/COCc2cc(ccc2OCCN2CCCC2)Nc2nccc(n2)-c2cccc(c2)COC/1 [PACRITINIB] | > 30 µM (inactive) |
| Cc1ccc(-n2nc(C(C)(C)C)cc2NC(=O)NCc2cc(F)ccc2Oc2ccc3c(cnn3CCO)c2)cc1 [PEXMETINIB] | > 30 µM (inactive) |
| C=CC(=O)N1CCC(Oc2cc3c(Nc4ccc(Cl)c(Cl)c4F)ncnc3cc2OC)CC1 [POZIOTINIB] | > 30 µM (inactive) |

Target: Cyclin-dependent kinase 6 (Homo sapiens, UniProt Q00534)
Sequence (Q00534 whole entry): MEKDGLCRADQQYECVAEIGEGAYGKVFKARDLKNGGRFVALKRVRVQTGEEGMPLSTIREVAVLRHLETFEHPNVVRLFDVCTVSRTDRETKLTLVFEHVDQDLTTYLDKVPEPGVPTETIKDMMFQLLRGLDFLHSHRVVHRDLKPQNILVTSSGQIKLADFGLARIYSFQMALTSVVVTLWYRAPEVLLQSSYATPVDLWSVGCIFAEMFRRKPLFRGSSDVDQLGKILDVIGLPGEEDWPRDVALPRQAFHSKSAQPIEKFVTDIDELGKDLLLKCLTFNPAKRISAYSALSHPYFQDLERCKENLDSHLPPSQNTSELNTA
Conditions: not given

| Structure (SMILES) | Kd |
| --- | --- |
| C1=C/COCc2cc(ccc2OCCN2CCCC2)Nc2nccc(n2)-c2cccc(c2)COC/1 [PACRITINIB] | > 30 µM (inactive) |
| Cc1ccc(-n2nc(C(C)(C)C)cc2NC(=O)NCc2cc(F)ccc2Oc2ccc3c(cnn3CCO)c2)cc1 [PEXMETINIB] | > 30 µM (inactive) |
| C=CC(=O)N1CCC(Oc2cc3c(Nc4ccc(Cl)c(Cl)c4F)ncnc3cc2OC)CC1 [POZIOTINIB] | > 30 µM (inactive) |

Target: Glycogen synthase kinase-3 beta (Homo sapiens, UniProt P49841)
Sequence (P49841 whole entry): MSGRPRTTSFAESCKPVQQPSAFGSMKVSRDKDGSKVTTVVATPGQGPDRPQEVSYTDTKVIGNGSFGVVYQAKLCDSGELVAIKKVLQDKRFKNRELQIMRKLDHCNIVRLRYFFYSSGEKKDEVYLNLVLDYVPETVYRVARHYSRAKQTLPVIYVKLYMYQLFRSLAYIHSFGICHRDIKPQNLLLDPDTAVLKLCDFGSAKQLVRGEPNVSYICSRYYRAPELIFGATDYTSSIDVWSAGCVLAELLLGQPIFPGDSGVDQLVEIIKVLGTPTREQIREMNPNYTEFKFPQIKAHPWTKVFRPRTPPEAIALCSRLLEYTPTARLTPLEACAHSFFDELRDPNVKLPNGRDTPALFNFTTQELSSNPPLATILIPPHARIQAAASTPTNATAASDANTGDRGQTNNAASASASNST
Conditions: not given

| Structure (SMILES) | Kd |
| --- | --- |
| C1=C/COCc2cc(ccc2OCCN2CCCC2)Nc2nccc(n2)-c2cccc(c2)COC/1 [PACRITINIB] | > 30 µM (inactive) |
| Cc1ccc(-n2nc(C(C)(C)C)cc2NC(=O)NCc2cc(F)ccc2Oc2ccc3c(cnn3CCO)c2)cc1 [PEXMETINIB] | > 30 µM (inactive) |
| C=CC(=O)N1CCC(Oc2cc3c(Nc4ccc(Cl)c(Cl)c4F)ncnc3cc2OC)CC1 [POZIOTINIB] | > 30 µM (inactive) |

Target: T1, RNA cytidine acetyltransferase (Homo sapiens, UniProt Q9H0A0)
T1 sequence (Q9H0A0 whole entry): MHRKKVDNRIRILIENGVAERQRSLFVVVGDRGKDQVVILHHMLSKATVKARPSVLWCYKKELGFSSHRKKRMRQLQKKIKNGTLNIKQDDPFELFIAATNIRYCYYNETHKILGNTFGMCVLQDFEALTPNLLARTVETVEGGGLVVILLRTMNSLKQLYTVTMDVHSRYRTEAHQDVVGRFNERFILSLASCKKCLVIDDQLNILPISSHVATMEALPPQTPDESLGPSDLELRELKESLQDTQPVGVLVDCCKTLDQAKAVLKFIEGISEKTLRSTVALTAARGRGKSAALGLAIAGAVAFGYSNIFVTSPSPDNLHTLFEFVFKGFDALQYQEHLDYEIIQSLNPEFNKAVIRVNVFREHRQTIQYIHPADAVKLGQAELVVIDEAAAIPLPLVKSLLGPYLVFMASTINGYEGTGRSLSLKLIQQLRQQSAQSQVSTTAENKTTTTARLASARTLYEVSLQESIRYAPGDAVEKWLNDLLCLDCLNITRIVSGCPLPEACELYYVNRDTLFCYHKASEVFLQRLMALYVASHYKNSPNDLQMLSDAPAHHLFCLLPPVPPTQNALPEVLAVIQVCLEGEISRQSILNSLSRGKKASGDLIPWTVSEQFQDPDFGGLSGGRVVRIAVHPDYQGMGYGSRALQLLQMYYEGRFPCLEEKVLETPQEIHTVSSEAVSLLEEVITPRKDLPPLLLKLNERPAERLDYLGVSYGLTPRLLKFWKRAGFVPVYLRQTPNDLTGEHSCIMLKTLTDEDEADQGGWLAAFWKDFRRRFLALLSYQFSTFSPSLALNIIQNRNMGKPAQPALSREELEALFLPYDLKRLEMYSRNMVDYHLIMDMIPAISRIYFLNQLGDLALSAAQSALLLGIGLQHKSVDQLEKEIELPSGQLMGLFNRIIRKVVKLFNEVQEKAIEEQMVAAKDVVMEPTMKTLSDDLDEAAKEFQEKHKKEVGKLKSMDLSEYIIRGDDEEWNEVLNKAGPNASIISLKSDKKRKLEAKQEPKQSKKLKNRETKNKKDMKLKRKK
Conditions: not given

| Structure (SMILES) | Kd |
| --- | --- |
| C1=C/COCc2cc(ccc2OCCN2CCCC2)Nc2nccc(n2)-c2cccc(c2)COC/1 [PACRITINIB] | > 30 µM (inactive) |
| Cc1ccc(-n2nc(C(C)(C)C)cc2NC(=O)NCc2cc(F)ccc2Oc2ccc3c(cnn3CCO)c2)cc1 [PEXMETINIB] | > 30 µM (inactive) |
| C=CC(=O)N1CCC(Oc2cc3c(Nc4ccc(Cl)c(Cl)c4F)ncnc3cc2OC)CC1 [POZIOTINIB] | > 30 µM (inactive) |

Target: T2, Uncharacterized protein FLJ45252 (Homo sapiens, UniProt Q6ZSR9)
T2 sequence (Q6ZSR9 whole entry): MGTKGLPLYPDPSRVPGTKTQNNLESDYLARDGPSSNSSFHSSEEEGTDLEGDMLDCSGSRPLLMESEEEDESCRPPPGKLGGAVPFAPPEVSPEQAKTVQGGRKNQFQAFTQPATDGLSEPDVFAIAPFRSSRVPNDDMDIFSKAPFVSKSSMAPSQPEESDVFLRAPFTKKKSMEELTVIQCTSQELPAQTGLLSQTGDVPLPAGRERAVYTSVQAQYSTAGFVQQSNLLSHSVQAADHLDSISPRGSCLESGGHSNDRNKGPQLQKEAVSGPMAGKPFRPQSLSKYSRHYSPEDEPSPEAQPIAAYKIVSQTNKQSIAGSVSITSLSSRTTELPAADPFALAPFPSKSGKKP
Conditions: read-out: Kd apparent; k-562, colo 205, sk-n-be(2) and mv-4-11

| Structure (SMILES) | Kd |
| --- | --- |
| C1=C/COCc2cc(ccc2OCCN2CCCC2)Nc2nccc(n2)-c2cccc(c2)COC/1 [PACRITINIB] | 0.052 µM (active) |
| Cc1ccc(-n2nc(C(C)(C)C)cc2NC(=O)NCc2cc(F)ccc2Oc2ccc3c(cnn3CCO)c2)cc1 [PEXMETINIB] | > 30 µM (inactive) |
| C=CC(=O)N1CCC(Oc2cc3c(Nc4ccc(Cl)c(Cl)c4F)ncnc3cc2OC)CC1 [POZIOTINIB] | > 30 µM (inactive) |

Target: Rho-associated protein kinase 2 (Homo sapiens, UniProt O75116)
Sequence (O75116 whole entry): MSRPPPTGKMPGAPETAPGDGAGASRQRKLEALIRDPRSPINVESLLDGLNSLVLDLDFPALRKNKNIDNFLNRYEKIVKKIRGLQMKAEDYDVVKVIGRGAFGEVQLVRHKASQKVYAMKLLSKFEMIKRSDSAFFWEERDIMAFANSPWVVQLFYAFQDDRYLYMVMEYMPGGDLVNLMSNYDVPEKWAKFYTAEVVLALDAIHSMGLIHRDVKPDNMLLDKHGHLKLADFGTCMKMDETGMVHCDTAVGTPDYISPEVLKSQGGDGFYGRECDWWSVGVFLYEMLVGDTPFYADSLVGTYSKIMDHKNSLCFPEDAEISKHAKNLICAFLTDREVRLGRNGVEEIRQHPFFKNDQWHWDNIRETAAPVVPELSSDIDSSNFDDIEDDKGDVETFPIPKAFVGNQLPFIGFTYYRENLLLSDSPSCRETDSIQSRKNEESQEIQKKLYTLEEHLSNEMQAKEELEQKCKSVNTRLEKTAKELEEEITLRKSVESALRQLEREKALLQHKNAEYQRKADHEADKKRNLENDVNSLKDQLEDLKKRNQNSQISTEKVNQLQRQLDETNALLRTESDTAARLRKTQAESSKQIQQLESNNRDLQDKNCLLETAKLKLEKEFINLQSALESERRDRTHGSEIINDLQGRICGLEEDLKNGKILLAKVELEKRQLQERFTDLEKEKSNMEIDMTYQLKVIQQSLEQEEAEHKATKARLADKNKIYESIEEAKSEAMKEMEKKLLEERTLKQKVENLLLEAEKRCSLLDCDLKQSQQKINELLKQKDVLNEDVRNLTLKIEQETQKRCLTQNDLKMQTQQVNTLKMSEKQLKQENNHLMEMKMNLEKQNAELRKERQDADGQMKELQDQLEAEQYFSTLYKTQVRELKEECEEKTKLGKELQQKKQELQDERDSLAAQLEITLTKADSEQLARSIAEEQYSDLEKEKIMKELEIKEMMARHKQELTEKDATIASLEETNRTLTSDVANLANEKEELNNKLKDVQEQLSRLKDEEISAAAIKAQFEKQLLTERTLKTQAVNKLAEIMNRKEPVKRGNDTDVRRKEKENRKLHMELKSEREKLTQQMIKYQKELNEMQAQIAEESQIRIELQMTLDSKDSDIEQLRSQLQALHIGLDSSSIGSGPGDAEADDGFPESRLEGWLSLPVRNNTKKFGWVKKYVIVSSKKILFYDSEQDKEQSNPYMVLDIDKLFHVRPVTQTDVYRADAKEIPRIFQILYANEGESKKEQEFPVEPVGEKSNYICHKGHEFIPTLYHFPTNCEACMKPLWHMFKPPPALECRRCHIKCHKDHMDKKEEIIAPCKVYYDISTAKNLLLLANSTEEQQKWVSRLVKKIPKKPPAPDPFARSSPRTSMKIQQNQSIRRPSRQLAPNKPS
Conditions: not given

| Structure (SMILES) | Kd |
| --- | --- |
| C1=C/COCc2cc(ccc2OCCN2CCCC2)Nc2nccc(n2)-c2cccc(c2)COC/1 [PACRITINIB] | > 30 µM (inactive) |
| Cc1ccc(-n2nc(C(C)(C)C)cc2NC(=O)NCc2cc(F)ccc2Oc2ccc3c(cnn3CCO)c2)cc1 [PEXMETINIB] | > 30 µM (inactive) |
| C=CC(=O)N1CCC(Oc2cc3c(Nc4ccc(Cl)c(Cl)c4F)ncnc3cc2OC)CC1 [POZIOTINIB] | > 30 µM (inactive) |

Target: T3, Signal recognition particle receptor subunit alpha (Homo sapiens, UniProt P08240)
T3 sequence (P08240 whole entry): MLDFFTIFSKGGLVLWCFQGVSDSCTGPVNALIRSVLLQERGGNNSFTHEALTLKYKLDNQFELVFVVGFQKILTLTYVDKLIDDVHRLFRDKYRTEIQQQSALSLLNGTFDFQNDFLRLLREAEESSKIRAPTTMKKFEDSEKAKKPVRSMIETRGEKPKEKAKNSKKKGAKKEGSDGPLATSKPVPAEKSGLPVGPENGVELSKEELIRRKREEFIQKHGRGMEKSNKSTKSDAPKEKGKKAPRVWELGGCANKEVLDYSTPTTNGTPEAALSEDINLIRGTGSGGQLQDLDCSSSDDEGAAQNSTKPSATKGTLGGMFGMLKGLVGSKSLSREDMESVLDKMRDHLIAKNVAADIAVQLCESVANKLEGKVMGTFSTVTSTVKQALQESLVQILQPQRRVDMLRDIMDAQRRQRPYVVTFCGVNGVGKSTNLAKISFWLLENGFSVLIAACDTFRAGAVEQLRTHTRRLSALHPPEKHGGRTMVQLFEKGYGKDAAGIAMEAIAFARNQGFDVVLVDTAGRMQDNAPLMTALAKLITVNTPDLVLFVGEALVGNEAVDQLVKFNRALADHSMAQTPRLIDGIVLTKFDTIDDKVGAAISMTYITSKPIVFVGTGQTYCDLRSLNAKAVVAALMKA
Conditions: not given

| Structure (SMILES) | Kd |
| --- | --- |
| C1=C/COCc2cc(ccc2OCCN2CCCC2)Nc2nccc(n2)-c2cccc(c2)COC/1 [PACRITINIB] | > 30 µM (inactive) |
| Cc1ccc(-n2nc(C(C)(C)C)cc2NC(=O)NCc2cc(F)ccc2Oc2ccc3c(cnn3CCO)c2)cc1 [PEXMETINIB] | > 30 µM (inactive) |
| C=CC(=O)N1CCC(Oc2cc3c(Nc4ccc(Cl)c(Cl)c4F)ncnc3cc2OC)CC1 [POZIOTINIB] | > 30 µM (inactive) |

Target: T4, TGF-beta receptor type-1 (Homo sapiens, UniProt P36897)
T4 sequence (P36897 whole entry): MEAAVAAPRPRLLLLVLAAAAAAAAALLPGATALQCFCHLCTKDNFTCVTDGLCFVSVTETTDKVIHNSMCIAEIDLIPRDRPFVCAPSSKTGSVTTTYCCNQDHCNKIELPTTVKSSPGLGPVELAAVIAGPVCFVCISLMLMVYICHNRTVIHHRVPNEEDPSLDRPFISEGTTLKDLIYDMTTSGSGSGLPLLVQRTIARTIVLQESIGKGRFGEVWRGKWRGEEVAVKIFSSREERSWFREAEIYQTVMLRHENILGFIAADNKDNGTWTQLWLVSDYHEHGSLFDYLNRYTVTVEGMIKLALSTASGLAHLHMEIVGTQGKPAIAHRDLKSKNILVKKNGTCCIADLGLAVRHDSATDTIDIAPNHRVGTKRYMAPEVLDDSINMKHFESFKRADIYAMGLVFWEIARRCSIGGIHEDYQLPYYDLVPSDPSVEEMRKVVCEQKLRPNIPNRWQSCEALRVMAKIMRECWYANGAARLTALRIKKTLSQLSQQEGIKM
Conditions: not given

| Structure (SMILES) | Kd |
| --- | --- |
| C1=C/COCc2cc(ccc2OCCN2CCCC2)Nc2nccc(n2)-c2cccc(c2)COC/1 [PACRITINIB] | > 30 µM (inactive) |
| Cc1ccc(-n2nc(C(C)(C)C)cc2NC(=O)NCc2cc(F)ccc2Oc2ccc3c(cnn3CCO)c2)cc1 [PEXMETINIB] | > 30 µM (inactive) |
| C=CC(=O)N1CCC(Oc2cc3c(Nc4ccc(Cl)c(Cl)c4F)ncnc3cc2OC)CC1 [POZIOTINIB] | > 30 µM (inactive) |

Target: Mitogen-activated protein kinase 3 (Homo sapiens, UniProt P27361)
Sequence (P27361 whole entry): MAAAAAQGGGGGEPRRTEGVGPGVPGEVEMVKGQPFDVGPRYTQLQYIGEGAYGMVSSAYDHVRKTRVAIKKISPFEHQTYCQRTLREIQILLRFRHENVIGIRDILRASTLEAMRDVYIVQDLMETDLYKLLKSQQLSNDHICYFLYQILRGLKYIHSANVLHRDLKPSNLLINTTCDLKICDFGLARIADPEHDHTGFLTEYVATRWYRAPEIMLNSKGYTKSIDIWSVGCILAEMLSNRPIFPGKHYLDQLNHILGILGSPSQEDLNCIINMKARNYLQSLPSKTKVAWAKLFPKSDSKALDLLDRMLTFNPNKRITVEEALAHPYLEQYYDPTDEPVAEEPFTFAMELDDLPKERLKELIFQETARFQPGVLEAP
Conditions: not given

| Structure (SMILES) | Kd |
| --- | --- |
| C1=C/COCc2cc(ccc2OCCN2CCCC2)Nc2nccc(n2)-c2cccc(c2)COC/1 [PACRITINIB] | > 30 µM (inactive) |
| Cc1ccc(-n2nc(C(C)(C)C)cc2NC(=O)NCc2cc(F)ccc2Oc2ccc3c(cnn3CCO)c2)cc1 [PEXMETINIB] | > 30 µM (inactive) |
| C=CC(=O)N1CCC(Oc2cc3c(Nc4ccc(Cl)c(Cl)c4F)ncnc3cc2OC)CC1 [POZIOTINIB] | > 30 µM (inactive) |
